Test results taken from article PMC11545510, “Goat Milk Protein-Derived ACE Inhibitory Peptide SLPQ Exerts Hypertension Alleviation Effects Partially by Regulating the Inflammatory Stress of Endothelial Cells” (Foods, 2024).
Where a SMILES comes first, the peptide text is derived from it.

Columns and labels:
EA.hy926 cells = assay: MTT cell viability; type: cell-based; conditions: 12 or 24 h; for viability of EA.hy926 cells: concentration lower than 200 μg/mL
Procedure: The cells were cultured in DMEM with 100 units/mL streptomycin–penicillin plus 2% FBS under an atmosphere of 5% CO2, 37 °C, and 100% humidity. The cells were seeded in 96-well plates at a density of 1 × 10^5 cells/well, and then treated with different concentrations of SLPQ (0, 12.5, 25, 50, 100, 200, 400, 800 μg/mL) or PYVRYL (0, 25, 50, 100, 200, 400, 800 μg/mL) for 12 or 24 h. After that, 0.05 mg/mL of MTT was added to each well and the plate was incubated for four hours at 37 °C. Finally, the culture media were replaced with 150 μL DMSO, and the OD value was detected at a wavelength of 570 nm (Infinity F200 microplate reader, Mainz, Germany).

eNOS = conditions: goat milk-derived ACE-inhibitory peptide; ref [39]; cited from earlier work
Procedure: Consequently, peptides SLPQ or PYVRYL were supplemented at concentrations ranging from 0 to 200 μg/mL in the following study. The bradykinin–NO signaling pathway can be activated by […] [44], and NO plays an important role in regulating blood pressure and the tension of vascular smooth muscle. Therefore, the content of NO in the ...

Row | Molecule | toxic effects on EA.hy926 cells (EA.hy926 cells; 400 μg/mL) | toxic effects on EA.hy926 cells (EA.hy926 cells; 800 μg/mL) | viability of EA.hy926 cells (EA.hy926 cells) | NO production and eNOS expression (eNOS)
1 | CC(C)C[C@H](NC(=O)[C@H](Cc1ccc(O)cc1)NC(=O)[C@H](CCCNC(=N)N)NC(=O)[C@@H](NC(=O)[C@H](Cc1ccc(O)cc1)NC(=O)[C@@H]1CCCN1)C(C)C)C(=O)O [PYVRYL] (H-PYVRYL-OH) | obvious toxic effects | obvious toxic effects | not affected | –
2 | CC(C)C[C@H](NC(=O)[C@@H](N)CO)C(=O)N1CCC[C@H]1C(=O)N[C@@H](CCC(N)=O)C(=O)O [SLPQ] (H-SLPQ-OH) | obvious toxic effects | obvious toxic effects | not affected | –
3 | SQPK | – | – | – | elevate NO production and eNOS expression
